Data set [1] has as its system Spontaneously Hypertensive Rats. Description: Test 1: antihypertensive effects (systolic tail artery blood pressure) and heart rate in spontaneously hypertensive rats, oral. It counts as in vivo, rat (male, SHR). Conditions: for change in vivo at 1 mg/kg / change in vivo at 10 mg/kg: Rattus norvegicus; for Change (%) in heart rate: maximum value. The essentials: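 Male SHRs aged 20 weeks or older (350-430 g), with systolic pressure of 180 mmHg or higher, were used in groups of 3-4. Compounds in 0.5% methylcellulose were given orally, mostly at 1 mg/Kg. Systolic tail-artery blood pressure and heart rate were measured together as percent change.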

For the next data set, the system named is Mouse. Description: Test 2: acute toxicity, mouse, oral. It counts as in vivo, male ddy-mice. As to conditions: fourteenth day. Here is the method: (§1) The acute toxicity of certain compounds of this invention were studied in the following manner.
(§2) Namely, male ddy-mice of 5 weeks of age and male Wister rats of 8 weeks of age were fasted for 18 hours and used in groups each of which was constituted of 4-5 of mice or rats. The compounds were each dissolved or suspended in a 0.5% methylcellulose solution and administered orally (P.O.). On the fourteenth day after the administration, their toxicity were judged.
(§3) Each numeral set indicates the number of dead animals/the number of teste
(§4) animals. Hyphens (--) indicate that no tests were effected.

The next data set relates to Rat. Description: Test 2: acute toxicity, rat, oral. It counts as in vivo, male Wister rats. Conditions: fourteenth day. Here is the method: as §1, §2, §3, §4
Where [2] appears, read: SHR, oral 1 mg/Kg, 1 hour, read-out: Antihypertensive effects, change (%) in blood pressure, 1 hour later.
[3] abbreviates: SHR, oral 1 mg/Kg, 3 hours, read-out: Antihypertensive effects, change (%) in blood pressure, 3 hours later.
[4] abbreviates: SHR, oral 1 mg/Kg, 6 hours, read-out: Antihypertensive effects, change (%) in blood pressure, 6 hours later.
The mark [5] stands for this setting: SHR, oral 1 mg/Kg, 24 hours, read-out: Antihypertensive effects, change (%) in blood pressure, 24 hours later.
Where [6] appears, read: po, 1 h, read-out: Antihypertensive effects, change (%) in blood pressure, 1 hour later.
[7] abbreviates: po, 3 h, read-out: Antihypertensive effects, change (%) in blood pressure, 3 hours later.
[8] abbreviates: po, 6 h, read-out: Antihypertensive effects, change (%) in blood pressure, 6 hours later.
The mark [9] stands for this setting: po, 24 h, read-out: Antihypertensive effects, change (%) in blood pressure, 24 hours later.

Where two headings read alike, the source gives them in different places.

For the compound `CCn1ccc2nc(N3CCN(c4nc(N)c5cc(OC)c(OC)cc5n4)CC3)ncc2c1=O` [Example 1, 4-Amino-6,7-dimethoxy-2-(4-(5,6-dihydro-6-ethyl-5-oxopyrido[4,3-d]pyrimidin-2-yl)piperazino)quinazoline], the change in vivo at 1 mg/kg in data set [1] (setting [2]) is -10.7%; in data set [1] (setting [3]) it was -17.3%; in data set [1] (setting [4]), -23%; in data set [1] (setting [5]) it was -8.2%. For the same compound, the “Change (%) in heart rate” value in data set [1] (SHR, oral 1 mg/Kg) was “+4.1%”. Moreover, the “Acute Toxicity, number of dead animals/number of tested animals” value in the data set with Mouse (1 g/Kg P.O.), in the data set on Mouse (3 g/Kg P.O.), with Rat (1 g/Kg P.O.) and with Rat (3 g/Kg P.O.) was 0/5 each time.
In the case of `CCNc1nc(N2CCN(c3nc(N)c4cc(OC)c(OC)cc4n3)CC2)ncc1C(=O)OC.Cl` [Example 2, 4-Amino-6,7-dimethoxy-2-(4-(4-ethylamino-5-methoxycarbonylpyrimidine-2-yl)piperazino)quinazoline hydrochloride], the change in vivo at 1 mg/kg in data set [1] (setting [2]) is -9%; in data set [1] (setting [3]), -23.9%; in data set [1] (setting [4]) it was -38.8%; in data set [1] (setting [5]), -16.4%. In addition, in data set [1] (SHR, oral 1 mg/Kg), the “Change (%) in heart rate” value is listed as “+18.4%”. For the same compound, the “Acute Toxicity, number of dead animals/number of tested animals” value with Mouse (1 g/Kg P.O.), in the data set on Mouse (3 g/Kg P.O.), in the data set on Rat (1 g/Kg P.O.) and with Rat (3 g/Kg P.O.) was 0/5 each time.
With `COc1cc2nc(N3CCN(c4ncc5c(=O)n(C)ccc5n4)CC3)nc(N)c2cc1OC` [Example 4], the change in vivo at 1 mg/kg in data set [1] (setting [2]) was -4.4%; in data set [1] (setting [3]) it was -22.1%; in data set [1] (setting [4]) it was -26.5%; in data set [1] (setting [5]), -16.7%. For the same compound, the “Change (%) in heart rate” value in data set [1] (SHR, oral 1 mg/Kg) is “+5.7%”. The “Acute Toxicity, number of dead animals/number of tested animals” value with Mouse (1 g/Kg P.O.), in the data set on Mouse (3 g/Kg P.O.), in the data set on Rat (1 g/Kg P.O.) and with Rat (3 g/Kg P.O.) was 0/5 each time.
As for `CCN1CCc2nc(N3CCN(c4nc(N)c5cc(OC)c(OC)cc5n4)CC3)ncc2C1=O` [Example 17], the change in vivo at 1 mg/kg was 0% in data set [1] (setting [2]), -20.2% in data set [1] (setting [3]), -27.9% in data set [1] (setting [4]) and -12% in data set [1] (setting [5]). The “Change (%) in heart rate” value in data set [1] (SHR, oral 1 mg/Kg) is given as “+10.8%”. Moreover, the “Acute Toxicity, number of dead animals/number of tested animals” value with Mouse (1 g/Kg P.O.) is reported as 0/5.
For the compound `CCN1CCC(=O)c2cnc(N3CCN(c4nc(N)c5cc(OC)c(OC)cc5n4)CC3)nc21` [Example 21], the change in vivo at 1 mg/kg was -17.2% in data set [1] (setting [2]), -23.2% in data set [1] (setting [3]), -23.6% in data set [1] (setting [4]) and -3.4% in data set [1] (setting [5]). Moreover, the “Change (%) in heart rate” value in data set [1] (SHR, oral 1 mg/Kg) is on record as “+7.4%”. Further, in the data set on Mouse (1 g/Kg P.O.), the “Acute Toxicity, number of dead animals/number of tested animals” value is 0/4.
For the compound `CCN1Cc2nc(N3CCN(c4nc(N)c5cc(OC)c(OC)cc5n4)CC3)ncc2C1=O` [Example 23], the change in vivo at 1 mg/kg in data set [1] (setting [2]) was -11.7%; in data set [1] (setting [3]), -21.9%; in data set [1] (setting [4]) it was -27%; in data set [1] (setting [5]), -2.6%. The “Change (%) in heart rate” value in data set [1] (SHR, oral 1 mg/Kg) was “+23.1%”. Besides, the “Acute Toxicity, number of dead animals/number of tested animals” value in the data set with Mouse (1 g/Kg P.O.) and in the data set on Mouse (3 g/Kg P.O.) was 0/5 in each case.
Turning to `COc1cc2nc(N3CCN(c4ncc5c(n4)CN(C(C)C)C5=O)CC3)nc(N)c2cc1OC` [Example 25], the change in vivo at 1 mg/kg in data set [1] (setting [2]) is -4.3%; in data set [1] (setting [3]), -23.9%; in data set [1] (setting [4]) it was -35.4%; in data set [1] (setting [5]), -6.7%. The “Change (%) in heart rate” value in data set [1] (SHR, oral 1 mg/Kg) is on record as “+12.9%”. In the data set with Mouse (1 g/Kg P.O.), the “Acute Toxicity, number of dead animals/number of tested animals” value is listed as 0/5.
As for `CCN1C(=O)Cc2cnc(N3CCN(c4nc(N)c5cc(OC)c(OC)cc5n4)CC3)nc21` [Example 28], the change in vivo at 1 mg/kg in data set [1] (setting [2]) is -17.2%; in data set [1] (setting [3]) it was -15.3%; in data set [1] (setting [4]) it was -31.6%; in data set [1] (setting [5]), -3.3%. Also, the “Change (%) in heart rate” value in data set [1] (SHR, oral 1 mg/Kg) is listed as “+11.7%”. Further, the “Acute Toxicity, number of dead animals/number of tested animals” value with Mouse (1 g/Kg P.O.) is on record as 0/5.
For the compound `COc1cc2nc(N3CCN(c4ncc5c(n4)N(C(C)C)C(=O)C5)CC3)nc(N)c2cc1OC` [Example 30], the change in vivo at 1 mg/kg in data set [1] (setting [2]) is -7.4%; in data set [1] (setting [3]), -24.7%; in data set [1] (setting [4]), -32.1%; in data set [1] (setting [5]), -8.8%. The “Change (%) in heart rate” value in data set [1] (SHR, oral 1 mg/Kg) is given as “+11.7%”. Moreover, in the data set with Mouse (1 g/Kg P.O.), the “Acute Toxicity, number of dead animals/number of tested animals” value is reported as 0/5.
`CCN1C(=O)CCCc2nc(N3CCN(c4nc(N)c5cc(OC)c(OC)cc5n4)CC3)ncc21` [Example 32]: the change in vivo at 1 mg/kg is -20.2% in data set [1] (setting [2]), -30.5% in data set [1] (setting [3]), -35.2% in data set [1] (setting [4]) and -16.4% in data set [1] (setting [5]). Also, the “Change (%) in heart rate” value in data set [1] (SHR, oral 1 mg/Kg) was “+11.0%”. The “Acute Toxicity, number of dead animals/number of tested animals” value with Mouse (1 g/Kg P.O.) is on record as 0/5.
Regarding `CCOC(=O)c1cnc(N2CCN(c3nc(N)c4cc(OC)c(OC)cc4n3)CC2)nc1C` [Example 39], the change in vivo at 1 mg/kg in data set [1] (setting [2]) is -4.4%; in data set [1] (setting [3]), -12.7%; in data set [1] (setting [4]), -7.3%; in data set [1] (setting [5]) it was 1.5%. In data set [1] (SHR, oral 1 mg/Kg), the “Change (%) in heart rate” value is given as “+2.2%”. Besides, the “Acute Toxicity, number of dead animals/number of tested animals” value with Mouse (1 g/Kg P.O.) is 0/5.
Take `CCNC(=O)c1cnc(N2CCN(c3nc(N)c4cc(OC)c(OC)cc4n3)CC2)nc1NCC` [Example 66]: the change in vivo at 1 mg/kg is -18% in data set [1] (setting [2]), -23.7% in data set [1] (setting [3]), -28.9% in data set [1] (setting [4]) and -16% in data set [1] (setting [5]). For the same compound, in data set [1] (SHR, oral 1 mg/Kg), the “Change (%) in heart rate” value is “+3.8%”. For the same compound, the “Acute Toxicity, number of dead animals/number of tested animals” value in the data set with Mouse (1 g/Kg P.O.) was 0/5.
Turning to `COc1cc2nc(N3CCN(c4ncc5ccccc5n4)CC3)nc(N)c2cc1OC` [Example 70], the change in vivo at 1 mg/kg is -7.8% in data set [1] (setting [2]), -17.5% in data set [1] (setting [3]), -23.3% in data set [1] (setting [4]) and -4.4% in data set [1] (setting [5]). Also, the “Change (%) in heart rate” value in data set [1] (SHR, oral 1 mg/Kg) is “+13.7%”. In addition, the “Acute Toxicity, number of dead animals/number of tested animals” value with Mouse (1 g/Kg P.O.) is listed as 0/4.
With `COc1cc2nc(N3CCN(c4ncc([N+](=O)[O-])cc4[N+](=O)[O-])CC3)nc(N)c2cc1OC` [Example 92], the change in vivo at 10 mg/kg is 1.4% in data set [1] (setting [6]), -3.3% in data set [1] (setting [7]), -9.4% in data set [1] (setting [8]) and -6.1% in data set [1] (setting [9]). Moreover, the “Change (%) in heart rate” value in data set [1] (SHR, oral 10 mg/Kg) is “+8.5%”.
For the compound `CCN(CC)C(=O)c1ccc(N2CCN(c3nc(N)c4cc(OC)c(OC)cc4n3)CC2)nc1` [Example 93], the change in vivo at 1 mg/kg was -4.5% in data set [1] (setting [2]), -9% in data set [1] (setting [3]), -10.5% in data set [1] (setting [4]) and -5% in data set [1] (setting [5]). Besides, the “Change (%) in heart rate” value in data set [1] (SHR, oral 1 mg/Kg) was “+8.0%”.
The matching figures for `COc1cc2nc(N3CCN(c4ccc5ccccc5n4)CC3)nc(N)c2cc1OC.Cl` [Example 94, 4-Amino-6,7-dimethoxy-2-(4-(2-quinolyl)piperazino)quinazoline hydrochloride]: -0.5%, -12.7%, -22.1%, -5.4% and “+5.4%”.
The matching figures for `CCn1ccc2nc(N3CCN(c4ncc5cc(OC)c(OC)cc5n4)CC3)ncc2c1=O` [Example 95, 6,7-Dimethoxy-2-(4-(5,6-dihydro-6-ethyl-5-oxopyrido[4,3-d]pyrimidine-2-yl)piperazino)quinazoline]: 2.5%, -2.9%, -6.4%, -3.9% and “+5.8%”.
The matching figures for `CCn1ccc2nc(N3CCN(c4ncc5ccccc5n4)CC3)ncc2c1=O` [Example 96, 2-(4-(5,6-Dihydro-6-ethyl-5-oxopyrido[4,3-d]pyrimidine-2-yl)piperazino)quinazoline]: 3%, -2.5%, -8%, -6.5% and “+2.9%”.
Take `COc1cc2nc(N3CCN(C(=O)C4CCCO4)CC3)nc(N)c2cc1OC` (stereo not drawn) [Terazosin, terazosin, reference compound]: the change in vivo at 1 mg/kg in data set [1] (setting [6]) is -22.4%; in data set [1] (setting [7]) it was -25.9%; in data set [1] (setting [8]), -23.4%; in data set [1] (setting [9]) it was -5.4%. Besides, the “Change (%) in heart rate” value in data set [1] (SHR, oral 1 mg/Kg) is given as “+7.2%”. The “Acute Toxicity, number of dead animals/number of tested animals” value in the data set with Mouse (1 g/Kg P.O.) is 0/5; in the data set on Mouse (3 g/Kg P.O.), 1/5.

The values above are taken from US4734418A, “Quinazoline compounds and antihypertensives” (priority 1984, dated 1988).
